The subject of assay [1] is C57BL/6J mice. In words: Intra peritoneal glucose tolerance test (IPGTT). Format: in vivo. The following applies: Mus musculus, 2 h; 30 mg/kg oral gavage 30 min before 2g/kg glucose intra peritoneally; overnight fasted male C57BL/6J mice; incremental AUC of glucose excursion vs vehicle; read-out: % reduction IPGTT at 30mg/kg. Here is the method: (§1) 8-10 week old male C57BL/6J mice (Harlan) were maintained on regular chow diet from Harlan (2018 Teklad Global). On the day before the experiment mice were fasted overnight, then randomized into groups (n=10-15) to receive the tested GPR120 agonist at doses ranging from 100mg/kg or the vehicle (1% CMC, 2% TWEEN 80). Compounds were delivered orally via gavage at 10mL/kg. Blood glucose levels were measured by glucometer (Ascensia Elite XL, Bayer) at time -30 minutes before administration of compound. Blood glucose was measured again after 30 minutes (at time 0), and then the mice were dosed intra peritoneally with 2g/kg glucose at 10mL/kg. Blood glucose measurements were taken 20, 40, 60, 90 and 120 minutes after glucose administration, by glucometer (Ascensia Elite XL, Bayer).
(§2) Glucose levels were plotted against time, and the incremental area under the curve (AUC) of the glucose excursion was determined from time 0 using Graphpad Prism 5.01. Outliers were excluded using Tukey's box plot outlier test, and statistical significance of differences in AUC of compound treatment compared to vehicle was determined by non-parametric Kruskal-Wallis test with Dunn's post test.
The compounds were tested at 30 mg/kg and the levels of blood glucose were determined in the presence and absence of the tested compounds. The percentage of glucose reduction is reported. The tested compounds were selected as Examples from the exemplified compounds. […]

Assay [2] concerns the target T1, human GPR120 (Homo sapiens, UniProt Q5NUL3).
T1 construct: host or cells: HEK293 cells co-expressing Gqi5
T1 sequence (Q5NUL3 1-361): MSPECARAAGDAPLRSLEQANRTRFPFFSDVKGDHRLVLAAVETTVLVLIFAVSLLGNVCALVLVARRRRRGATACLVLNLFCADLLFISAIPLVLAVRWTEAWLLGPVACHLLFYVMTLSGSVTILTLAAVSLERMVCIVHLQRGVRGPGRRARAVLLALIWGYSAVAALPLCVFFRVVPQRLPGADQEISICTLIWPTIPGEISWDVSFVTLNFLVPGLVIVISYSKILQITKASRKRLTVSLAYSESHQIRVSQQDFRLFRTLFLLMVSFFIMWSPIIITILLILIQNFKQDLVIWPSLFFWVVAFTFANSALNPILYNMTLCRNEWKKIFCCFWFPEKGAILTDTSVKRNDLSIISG
Description: Intracellular Ca2+ assay in human GPR120 stable cell line (FLIPR Calcium 4 dye, Flexstation). Format: cell-based. Conditions: HEK293 cells co-expressing Gqi5; for activity at 2.5 µM: HEK293, % activity at 2.5 µM compared to the maximal activity of the compound of Example 25 at 2.5 µM (=100%), read-out: % Activity (Ex. 25 Reference Compound).

In assay [3] the test system is C57BL/6J mice. Description: Oral glucose tolerance test. It counts as in vivo. Conditions: Table 2; 100 mg/kg oral gavage 30 min before 3g/kg oral glucose; 6 h fasted male C57BL/6J mice; incremental AUC vs vehicle. On the procedure: as §1, with “day of” for “day before”, “fasted for 6 hours,” for “fasted overnight,”, “dosed orally” for “dosed intra peritoneally”, “with 3g/kg” for “with 2g/kg”
as §2
Tables 2 and 3 below show the mean percentage inhibition of the glucose excursion for the fifteen animals tested in each group. The compounds were tested at 100 mg/kg and the levels of blood glucose were determined in the presence and absence of the tested compounds. The percentage of glucose reduction is reported. The tested compounds were selected as examples from the exemplified compounds. […]

As for `CC1(C)Cc2cc(F)cc(COc3ccc(C4CC4C(=O)O)cc3)c2O1` (racemic) [Example 131 (racemic), 2-(4-((5-fluoro-2,2-dimethyl-2,3-dihydrobenzofuran-7-yl)methoxy)phenyl) cyclopropanecarboxylic acid], the inhibition in vivo at 30 mg/kg in assay [1] was 23.1%. In the case of `CC(Cc1ccc(OCc2cc(Cl)cc3c2OC(C)(C)C3)c(C(F)(F)F)c1)C(=O)O` (stereo not shown) [Example 9, 3-(4-((5-chloro-2,2-dimethyl-2,3-dihydrobenzofuran-7-yl)methoxy)-3-(trifluoromethyl)phenyl)-2-methylpropanoic acid], the activity at 5 µM in assay [2] (HEK293, % activity at 5 µM compared to the maximal activity of GW9508 at 6.7 µM (=100%), read-out: %Activity (GW9508 Reference Compound)) is 113%. Besides, the inhibition in vivo at 30 mg/kg in assay [1] came to 19.8%. For the molecule `CC(Cc1ccc(OCc2cc(Cl)cc3c2OC(C)(C)C3)cc1)C(=O)O` (stereo not shown) [Example 13], the “% reduction AUC glucose excursion at 100mg/kg” value in assay [3] was 61.9%. As for `COc1cc(OCc2cc(F)cc3c2OC(C)(C)C3)ccc1CCC(=O)O` [Example 50, 3-(4-((5-fluoro-2,2-dimethyl-2,3-dihydrobenzofuran-7-yl)methoxy)-2-methoxyphenyl)propanoic acid], in assay [2], the activity at 2.5 µM was determined as 130%. Moreover, in assay [1], the inhibition in vivo at 30 mg/kg came out at 26.2%. For `CC1(C)Cc2cc(Cl)cc(COc3ccc(CCC(=O)O)c4c3CCC4)c2O1` [Example 64, 3-(7-((5-chloro-2,2-dimethyl-2,3-dihydrobenzofuran-7-yl)methoxy)-2,3-dihydro-1H-inden-4-yl)propanoic acid], the inhibition in vivo at 30 mg/kg in assay [1] amounted to 24.9%. As for `C[C@H](Cc1ccc(OCc2cc(F)cc3c2OC(C)(C)C3)cc1)C(=O)O` [Example 65, (R)-3-(4-((5-fluoro-2,2-dimethyl-2,3-dihydrobenzofuran-7-yl)methoxy)phenyl)-2-methylpropanoic acid], the activity at 2.5 µM in assay [2] was found to be 141%. Besides, in assay [1], the inhibition in vivo at 30 mg/kg was 22.2%. On to `CC(Cc1ccc(OCc2cc(Cl)cc3c2OC(C)(C)C3=O)c(F)c1)C(=O)O` (stereo not shown) [Example 77, 3-(4-((5-chloro-2,2-dimethyl-3-oxo-2,3-dihydrobenzofuran-7-yl)methoxy)-3-fluorophenyl)-2-methylpropanoic acid], for which the activity at 2.5 µM in assay [2] is 110%. Also, in assay [1], the inhibition in vivo at 30 mg/kg was 10.4%. `CC1(C)Cc2cc(F)cc(COc3ccc(CCC(=O)O)cc3)c2O1` [Example 132, 3-(4-((5-fluoro-2,2-dimethyl-2,3-dihydrobenzofuran-7-yl)methoxy)phenyl)propanoic acid]: the inhibition in vivo at 30 mg/kg in assay [1] was 6.5%. For `CCc1cc(OCc2cc(F)cc3c2OC(C)(C)C3)ccc1CCC(=O)O` [Example 134, 3-(2-ethyl-4-((5-fluoro-2,2-dimethyl-2,3-dihydrobenzofuran-7-yl)methoxy)phenyl)propanoic acid], the activity at 2.5 µM in assay [2] came to 151%. Also, the inhibition in vivo at 30 mg/kg in assay [1] is 30.2%.

`C[C@H](Cc1ccc(OCc2cc(Cl)cc3c2OC(C)(C)C3)c(F)c1)C(=O)O` [Example 141, (R)-3-(4-((5-chloro-2,2-dimethyl-2,3-dihydrobenzofuran-7-yl)methoxy)-3-fluorophenyl)-2-methylpropanoic acid]: in assay [2], the activity at 2.5 µM turned out to be 143%. Further, in assay [1], the inhibition in vivo at 30 mg/kg is 30.6%. As to `C[C@@H](Cc1ccc(OCc2cc(Cl)cc3c2OC(C)(C)C3)c(F)c1)C(=O)O` [Example 142, (S)-3-(4-((5-chloro-2,2-dimethyl-2,3-dihydrobenzofuran-7-yl)methoxy)-3-fluorophenyl)-2-methylpropanoic acid], the inhibition in vivo at 30 mg/kg in assay [1] was 36.2%. Turning to `CC1(C)Cc2cc(F)cc(COc3ccc4c(c3)CC[C@@H]4CC(=O)O)c2O1` [Example 178, (R)-2-(5-((5-fluoro-2,2-dimethyl-2,3-dihydrobenzofuran-7-yl)methoxy)-2,3-dihydro-1H-inden-1-yl)acetic acid], the activity at 2.5 µM in assay [2] was 106%. Moreover, in assay [1], the inhibition in vivo at 30 mg/kg came to 16.3%. For `Cc1c(CCC(=O)O)ccc(OCc2cc(F)cc3c2OC(C)(C)C3)c1C` [Example 208, 3-(4-((5-fluoro-2,2-dimethyl-2,3-dihydrobenzofuran-7-yl)methoxy)-2,3-dimethylphenyl)propanoic acid], in assay [2], the activity at 2.5 µM was determined as 147%. Also, in assay [1], the inhibition in vivo at 30 mg/kg came out at 41.7%. Consider `Cc1c(CCC(=O)O)ccc(OCc2cc(Cl)cc3c2OC(C)(C)C3)c1C` [Example 209, 3-(4-((5-chloro-2,2-dimethyl-2,3-dihydrobenzofuran-7-yl)methoxy)-2,3-dimethylphenyl)propanoic acid], for which the activity at 2.5 µM in assay [2] amounted to 142%. Also, the inhibition in vivo at 30 mg/kg in assay [1] was 43.6%. As for `CC(C)Oc1ccc(Cl)cc1COc1cc2c(cc1F)C(CC(=O)O)CC2` (stereo not shown) [Example 257, 2-(5-((5-chloro-2-isopropoxybenzyl)oxy)-6-fluoro-2,3-dihydro-1H-inden-1-yl)acetic acid], in assay [2], the activity at 2.5 µM turned out to be 125%. Still for that read-out and setting: the result for `CC(C)Oc1ccc(Cl)cc1COc1ccc2c(c1)CCC2CC(=O)O` (stereo not shown) [Example 258, 2-(5-((5-chloro-2-isopropoxybenzyl)oxy)-2,3-dihydro-1H-inden-1-yl)acetic acid] reads 140%; that for `CC(C)Oc1ncccc1COc1ccc2c(c1)CCC2CC(=O)O` (stereo not shown) [Example 259, 2-(5-((2-isopropoxypyridin-3-yl)methoxy)-2,3-dihydro-1H-inden-1-yl)acetic acid], 118%; that for `CC(Cc1cc(F)c(OCc2cccc3cn[nH]c23)c(F)c1)C(=O)O` (stereo not shown) [Example 260, 3-(4-((1H-indazol-7-yl)methoxy)-3,5-difluorophenyl)-2-methylpropanoic acid], 16.7%. The same measure, in the same setting: next, `Cc1nc2cccc(COc3c(F)cc(CC(C)C(=O)O)cc3F)c2o1` (stereo not shown) [Example 261, 3-(3,5-difluoro-4-((2-methylbenzo[d]oxazol-7-yl)methoxy)phenyl)-2-methylpropanoic acid]: 109%; `CC1(C)Cc2cc(F)cc(COc3ccc4c(CC(=O)O)coc4c3)c2O1` [Example 262, 2-(6-((5-fluoro-2,2-dimethyl-2,3-dihydrobenzofuran-7-yl)methoxy)benzofuran-3-yl)acetic acid]: 137%. Same read-out and setting: the result for `CC1(C)Cc2cc(F)cc(COc3ccc4c(CC(=O)O)cc(=O)oc4c3)c2O1` [Example 263, 2-(7-((5-fluoro-2,2-dimethyl-2,3-dihydrobenzofuran-7-yl)methoxy)-2-oxo-2H-chromen-4-yl)acetic acid] reads 5.98%; that for `CC(Cc1ccc(OCc2cc(F)cc3c2OC(C)(C)C3)cc1)C(=O)NO` (stereo not shown) [Example 264, 3-(4-((5-fluoro-2,2-dimethyl-2,3-dihydrobenzofuran-7-yl)methoxy)phenyl)-N-hydroxy-2-methylpropanamide], 110%. With `CC(C)C(CC(=O)O)c1ccc(OCc2cc(Cl)cc3c2OC(C)(C)C3)cc1` (stereo not shown) [Example 266, 3-(4-((5-chloro-2,2-dimethyl-2,3-dihydrobenzofuran-7-yl)methoxy)phenyl)-4-methylpentanoic acid], in assay [2], the activity at 2.5 µM is 42.7%. As for `Cc1c(CCC(=O)O)ccc(OCc2cc(Cl)cc3c2CC(C)(C)O3)c1C` [Example 267, 3-(4-((6-chloro-2,2-dimethyl-2,3-dihydrobenzofuran-4-yl)methoxy)-2,3-dimethylphenyl)propanoic acid], in assay [2], the activity at 2.5 µM was 141%. As for `CCOc1cc(OCc2cc(F)cc3c2OC(C)(C)C3)ccc1CCC(=O)O` [Example 268, 3-(2-ethoxy-4-((5-fluoro-2,2-dimethyl-2,3-dihydrobenzofuran-7-yl)methoxy)phenyl)propanoic acid], the inhibition in vivo at 30 mg/kg in assay [1] was determined as 23%.

These data come from patent EP2582674B1 (Cymabay Therapeutics, Inc., priority 2010, dated 2011).
